Assay results taken from article PMC7596714, “Acute EPA-induced learning and memory impairment in mice is prevented by DHA” (Nature Communications, 2020).

Molecular target: T1, 5-HT6R (5-hydroxytryptamine6 receptor, serotonin 6 receptor) (Homo sapiens, UniProt P50406)
T1 construct: gene HTR6
Experiment: radioligand competition with [3H]-LSD; supported by cAMP accumulation in […] cells with human 5-HT6R plasmid
Assay type: binding

T1 sequence (P50406 whole entry): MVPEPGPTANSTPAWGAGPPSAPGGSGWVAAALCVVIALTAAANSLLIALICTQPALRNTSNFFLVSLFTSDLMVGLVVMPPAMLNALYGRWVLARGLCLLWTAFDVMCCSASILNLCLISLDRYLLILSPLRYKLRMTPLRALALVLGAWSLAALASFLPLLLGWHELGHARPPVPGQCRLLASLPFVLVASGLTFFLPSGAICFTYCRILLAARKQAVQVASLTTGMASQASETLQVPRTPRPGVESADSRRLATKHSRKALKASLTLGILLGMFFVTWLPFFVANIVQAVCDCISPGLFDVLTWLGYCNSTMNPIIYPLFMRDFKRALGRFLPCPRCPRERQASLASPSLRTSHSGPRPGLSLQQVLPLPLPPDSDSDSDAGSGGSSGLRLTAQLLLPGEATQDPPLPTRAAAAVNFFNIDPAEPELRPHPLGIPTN

- IC50: 26.6 µM
Compound: CC/C=C\C/C=C\C/C=C\C/C=C\C/C=C\CCCC(=O)O [EPA, Eicosapentaenoic acid]
